PubChem BioAssay (NCI)
Where “and” joins values, the source holds several entries; their conditions need not be identical. Identical values can stand only once.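 How tested: cells in 96-well plates exposed to compound for 48 hours at five concentrations. The concentration for 50% growth inhibition is given as GI50. TGI denotes the concentration required for complete inhibition of growth.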

Legend:
Experiment in all cases: NCI tumour cell line growth inhibition, 48 h
MCF7 breast = system: MCF7 breast
CAKI-1 renal = system: CAKI-1 renal
UACC-62 melanoma = system: UACC-62 melanoma
DU-145 prostate = system: DU-145 prostate
HCC-2998 colon = system: HCC-2998 colon
MOLT-4 leukemia = system: MOLT-4 leukemia
NCI-H23 lung = system: NCI-H23 lung
IGROV1 ovarian = system: IGROV1 ovarian
UO-31 renal = system: UO-31 renal
EKVX NSCLC = system: EKVX NSCLC

Compound	TGI (MCF7 breast) [µM]	TGI (CAKI-1 renal)	TGI (UACC-62 melanoma)	TGI (DU-145 prostate) [µM]	TGI (HCC-2998 colon)	TGI (MOLT-4 leukemia) [µM]	TGI (NCI-H23 lung)	TGI (IGROV1 ovarian)	TGI (UO-31 renal)	TGI (EKVX NSCLC) [µM]	GI50 (MCF7 breast) [nM]	GI50 (CAKI-1 renal) [nM]	GI50 (UACC-62 melanoma) [nM]	GI50 (DU-145 prostate) [nM]	GI50 (HCC-2998 colon) [µM]	GI50 (MOLT-4 leukemia) [µM]	GI50 (NCI-H23 lung) [nM]	GI50 (IGROV1 ovarian) [nM]	GI50 (UO-31 renal) [nM]	GI50 (EKVX NSCLC) [µM]
O=c1[nH]c(=S)[nH]c2c1CN(CCCN1CCOCC1)CN2	> 100	> 100 µM	37.3 µM	> 100	73.3 µM	83	54.4 µM	> 100 µM	> 100 µM	> 100										
CC(=O)C1=C(O)C=C2Oc3c(C(=O)/C=C/c4c(Cl)cccc4Cl)c(O)c(C)c(O)c3[C@]2(C)C1=O	2.75	8.92 µM	2.8 µM	6.31	5.26 µM	8.57	5.82 µM	9.37 µM	7.59 µM	7.24	436	832	677	966	2.57	0.666	1230	1560	1920	1.63
O=C(c1ccccc1)C(CN1CCCCC1)c1ccccc1 (stereo not drawn)	37.8	2.45 µM	4.8 µM	2.05	12.3 µM	5.09	3.78 µM	3.34 µM	3.07 µM	16.7	2810	1080	1980	681	3.97	1.96	1650	1500	1580	3.5
C[C@@]12CCC[C@@](C)(C(=O)O)C1CC[C@]13C[C@@](O)(CO)[C@](O)(CCC12)C3 (stereo partly drawn)	> 100	> 100 µM	> 100 µM	> 100	> 100 µM	> 100	> 100 µM	> 100 µM	> 100 µM	> 100	> 100000	> 100000	> 100000	> 100000	> 100	> 100	> 100000	> 100000	> 100000	> 100
[N-]=[N+]=NCCCCCC(=O)OC(C(=O)c1ccccc1)c1cccc(OCC(=O)NCCOCCOCCNC(=O)CCCC[C@@H]2SC[C@@H]3NC(=O)N[C@@H]32)c1 (stereo partly drawn)	> 100	> 100 µM	> 100 µM	> 100	> 100 µM	> 100	> 100 µM	> 100 µM	> 100 µM	> 100	51300	> 100000	> 100000	> 100000	39.6	43.8	> 100000	> 100000	> 100000	> 100
CCN(CC)c1ccc(C(O)C2=CC(=O)c3ccccc3C2=O)cc1 (stereo not drawn)	6.31	7.4 µM	3.34 µM	4.27	3.43 µM	> 100	3.02 µM	3.07 µM	6.25 µM	15.7	1580	2310	1650	1850	1.92	0.44	1330	1530	2120	4.01
CC1CCCC(C(O)CC2CC(=O)NC(=O)C2)C1O (stereo not drawn)	> 100	> 100 µM	> 100 µM	> 100	> 100 µM	> 100	> 100 µM	> 100 µM	> 100 µM	> 100										
S=C(Nc1ccc(-c2nc3ccccc3[nH]2)cc1)Nc1ccc(-c2nc3ccccc3[nH]2)cc1	> 100	> 100 µM	> 100 µM	> 100	> 100 µM	> 100	> 100 µM	> 100 µM	> 100 µM	> 100	28800	69700	38600	> 100000	45.8	43.8	70300	64100	31700	> 100
CCC/C(=N\NC(=S)N1CC2CCC(CC2)C1)c1ccccn1	1.44	2.75 µM and 2.69 µM	1.14 µM and 0.642 µM	2.82	1.48 µM and 1.86 µM		2.77 µM and 0.674 µM	1.4 µM and 2.21 µM	4.26 µM and 1.79 µM			1030	32.9		0.244		14.1	372	124	0.186
CNC(=O)c1ccccc1Nc1nc(Nc2cc(OC)c(OC)c(OC)c2)ncc1Br	2.78	0.275 µM	1.64 µM	42.1	1.54 µM	5.75	1.12 µM		0.0849 µM	1.01	37.4	15.5	25.5	34.8	0.027	0.0501	35		< 14	0.0308
Nc1nc2c(ncn2C2C=CC(CO)C2)c(=O)[nH]1 (stereo not drawn)	> 100	> 100 µM	> 100 µM	> 100	> 100 µM		> 100 µM	> 100 µM	> 100 µM	> 100										
O=C(COc1cc(O)c2c(=O)cc(-c3ccccc3)oc2c1)Nc1ccccc1C(F)(F)F	> 100	18.7 µM	> 100 µM	> 100	> 100 µM	> 100	11.6 µM	15.9 µM		62.4	7400	3740	6580	7970	> 100	5.46	3070	3610		9.37
COCc1cc(C(=O)Nc2cc([C@H]3CC[C@@H](OC(=O)NC(C)C)C3)[nH]n2)n(C)n1	> 100	95.3 µM	36.4 µM	> 100	48.2 µM	68.1		> 100 µM	58.6 µM	85.8	2530	3640	11500	5130	5.39	5.34		4740	16000	19.1
